Measured values from PMC5823406, “Vehicle development, pharmacokinetics and toxicity of the anti-invasive agent 4-fluoro-3’,4’,5’-trimethoxychalcone in rodents” (PLoS ONE, 2018).
Where two headings read alike, the source gives them in different places.

How the values were obtained:
[1] = Stability and homogeneity of C16 dispersion in Medigel Sucralose; type: physicochemical; conditions: for Peak ratio C16/IS relative to first time point, Average of three wavelengths: Medigel Sucralose 235.29 mg/cup, 1.64% DMSO
Experimental: A pre-weighed amount of C16 was dissolved in 1 mL of DMSO and the resulting solution was delivered into a cup of Medigel sucralose (pre-warmed to room temperature) with a syringe through the foil lid. In order to facilitate even distribution of C16 in the gel, the injection was spread over several points. The resulting suspension of C16 in gel was dispersed evenly by vigorous shaking for at least two minutes. Visual control confirmed a uniform and finely dispersed suspension of C16 particles in the gel. The final DMSO concentration in the gel was 1.64%. […]
A.B. Vehicle development for repeated high-dose PO administration of C16 b. Stability test of the 300 mg/kg preparation of C16 in Medigel Sucralose at room temperature The 300 mg/kg preparation refers to a cup containing 235.29 mg of C16 and 1.64% DMSO (see Materials and Methods section of main text). Sampling took place for a solvent control cup (containing only 1.64% DMSO) , and for the medicated cup at 0.17, 5.33, 55, 102 and 144 h post preparation. Samples of 1 mL were withdrawn with syringe and needle through the lid, and mixed with 1 mL of acetonitrile. The supernatant of the resulting suspension was filtered through a Whatman 0.2 µm PTFE syringe filter and analyzed using HPLC -MS.
Instrument: Agilent 1200 series HPLC system
Column: Ascentis Express C18 column 2.7 µm (30 x 4.6 mm)
Mobile phase A: Water (H2O) + 5 mM NH4OAc
Mobile phase B: Acetonitrile
Column Temperature: 40 °C
UV Detector: Diode array detector, 190 – 400 nm
Table B. Stability of C16 in Medigel Sucralose: g radient program .
Time (min) Flow rate (mL/min) A (%) B (%)
Mass spectrometer conditions
Instrument: Agilent 1100 series VL mass spectrometer
Ionization mode: API-ES, positive ions
Main derivative: Z-isomer of C16
Retention time : 3.34 min
Table C. Stability of C16 in Medigel Sucralose: evolution of peak areas of IS, C16 and its Z-isomer in time for three wavelengths. […]
time IS peak C16 Z- Ratio IS peak C16 Z- Ratio IS peak C16 Z- Ratio
(h) area peak isomer (C16/IS area peak isomer (C16/IS area peak isomer (C16/IS (mAU.s) area peak peak (mAU.s) area peak peak (mAU.s) area peak peak
(mAU.s) area area) (mAU.s) area area) (mAU.s) area area)
Peak ratios for stability assessment
Peak ratios for C16/IS, relative to the first time point, were calculated for three wavelengths (Table D).
Table D. Stability of C16 in Medigel Sucralose: peak ratios for C16/IS, relative to first time point, for three wavelengths.
Peak ratios for homogeneity assessment of a 300 mg/kg C16-doped gel
The 300 mg/kg preparation refers to a cup containing 235.29 mg of C16 and 1.64% DMSO. After preparation (see ‘Materials and Methods’ section of main text), the gel was sampled through the lid at five sites (Fig A).
Fig A. Sampling of C16-doped Medigel Sucralose.
The samples were analyzed according to the method described above for the stability test of C16 in Medigel Sucralose […]
Table E. Peak areas of IS, C16 and its Z-isomer at five sampling sites for three wavelengths. […]
sites IS peak C16 peak Ratio IS peak C16 peak Ratio IS peak C16 peak Ratio area area (C16/IS area area (C16/IS area area (C16/IS
(mAU.s) (mAU.s) peak area) (mAU.s) (mAU.s) peak area) (mAU.s) (mAU.s) peak area) […]
Individual plasma concentrations for C16 are shown in Table F and Table G. All data are expressed as ng/mL of the free drug. Samples that were below the limit of quantitation were not used in the calculation of averages. Plasma concentrations versus time data are plotted in Fig B and Fig C. Measured dosing concentrations were used in all pharmacokinetic calculations.
(1 picture or pasted object on this page, not shown here)

[2] = Protein binding and recovery; type: in vitro ADME; conditions: Human plasma
[3] = system: Caco-2; test: Caco-2 permeability and recovery; type: in vitro ADME; conditions: Caco-2, pH 7.4/7.4; 10 μM
Source text: (§1) Table 3 In vitro physicochemical, stability and metabolism data. | column: Value

[4] = Whole blood stability; type: in vitro ADME, rat; conditions: for half-life at 1 μM: male, Sprague-Dawley, rat
Experimental: C16 (1 μM) or vehicle (DMSO) were incubated with fresh rat blood (Sprague Dawley, male) at 37°C at 5 time points in duplicate over a 120-min period. The final DMSO concentration in the incubation was 0.25%. Reactions were terminated following 0, 15, 30, 60 and 120 min by acetonitrile containing internal standard. The sampling plate was centrifuged (3000 rpm, 45 min, 4 °C) and the supernatants from each time point analyzed for parent compound by HPLC-MS/MS. The percentage of parent compound remaining at each time point relative to the 0-min sample was then calculated from HPLC-MS/MS peak area ratios (compound peak area/internal standard peak area).
C. Stability and metabolism
For details on ADME experiments not included underneath , please consult ref. [1].
C.A. Whole blood stability
Column: Kinetex XB-C18 column, 2.6 µm (150 x2.1 mm)
Mobile phase A: H2O + 0.1% v/v Formic Acid
Mobile phase B: MeCN + 0.1% v/v Formic Acid
Autosampler syringe volume: 100 µL
Weak wash: MeOH:H2O 1:9 v/v
Strong wash: MeOH:H2O 95:5 v/v
Table K. Gradient program.
Mass spectrometric conditions
Model: AB Sciex API5500 QTrap
Mode: Multiple ion monitoring (MIM)
Table L. MIM (parent to parent transitions).
The areas and percentages for the parent and metabolites have been calculated using MIM data where parent to parent transitions have been used, and assume that each metabolite has the same point of ionisation and the sensitivity of the metabolite has not been affected by the biotransformation.

[5] = Liver microsome stability; type: in vitro ADME; conditions: liver microsomes (rat, Sprague-Dawley)
Source text: as §1

Structure (SMILES): COc1cc(C(=O)/C=C/c2ccc(F)cc2)cc(OC)c1OC [C16, 4-fluoro-3’,4’,5’-trimethoxychalcone]
- Peak ratio C16/IS relative to first time point, Average of three wavelengths ([1]; room temperature, 5.3 h): 90.3
- Peak ratio C16/IS relative to first time point, Average of three wavelengths ([1]; room temperature, 55 h): 95.0
- Peak ratio C16/IS relative to first time point, Average of three wavelengths ([1]; room temperature, 102 h): 96.9
- Peak ratio C16/IS relative to first time point, Average of three wavelengths ([1]; room temperature, 144 h): 85.8
- Distribution of compound in Medigel Sucralose ([1]; five sampling sites): uniformly distributed
- Stability of suspension in Medigel Sucralose ([1]; room temperature, over 144 h): stable
- fraction unbound at 100 μM [2]: 0.01
- recovery at 100 μM [2]: 90%
- Permeability A-B [3]: 10.4 10^−6 cm/s
- Permeability A-B: recovery [3]: 17%
- Permeability B-A [3]: 4.9 10^−6 cm/s
- Permeability B-A: recovery [3]: 66%
- remaining at 15 min, 1 µM ([4]; fresh whole blood, male Sprague-Dawley rat blood, 15 min, read-out: Compound remaining (% of 0 min)): 16.5%
- remaining at 30 min, 1 µM ([4]; fresh whole blood, male Sprague-Dawley rat blood, 30 min, read-out: Compound remaining (% of 0 min)): 13.8%
- remaining at 60 min, 1 µM ([4]; fresh whole blood, male Sprague-Dawley rat blood, 60 min, read-out: Compound remaining (% of 0 min)): 10.6%
- remaining at 120 min, 1 µM ([4]; fresh whole blood, male Sprague-Dawley rat blood, 120 min, read-out: Compound remaining (% of 0 min)): 7%
- Intrinsic clearance ([4]; male Sprague-Dawley rat blood, Both Isomers integrated): 120 µL/min/mL blood
- half-life at 1 μM ([4]; fresh whole blood, blood (rat, Sprague-Dawley), 1 μM, read-out: Half-life): 6 min
- half-life at 1 μM ([4]; fresh whole blood, male Sprague-Dawley rat blood, Both Isomers integrated, read-out: t1/2): 5.76 min
- half-life at 1 μM ([4]; fresh whole blood, male Sprague-Dawley rat blood, E-isomer only, read-out: t1/2): 8.06 min
- half-life at 0.1 μM [5]: 20 min
- microsomal CLint at 0.1 μM ([5]; read-out: Intr. clearance): 339 µL/min/mg
